According to US20100216891A1, “AROMATIC ANTIHYPERTENSIVE AGENT, AND METHOD FOR LOWERING BLOOD PRESSURE IN MAMMALS” (PANASONIC CORPORATION, priority 2008, published 2010):

System: male Wister strain rats
Assay: Test Example 1: change in blood pressure of rats on presentation of aromatic compositions to the nostril
Type: in vivo
Details: rat, aroma presented to vicinity of nostril for 10 minutes, 30 minutes after the presentation, FIG. 1
Experimental: Focusing attention on aromatic components contained in a Melissa essential oil, one of plant essential oils, various aromatic compositions were presented to male Wister strain rats, and evaluation of change in caudal arterial pressure before and after the presentation was conducted. The test was carried out under conditions that avoid stress which may be placed on the rat as less as possible, and thus can be kept calm in an environment of the measurement of the blood pressure.
Male Wister strain rats of 7-week old were purchased, and after one week acclimatization period, the blood pressure was measured on 8-week old. All experimental animals were kept under a 12:12 light-dark cycle (light period: from 8 AM to 8 PM), with allowing for free access to chow and drinking water.
Training for adaptation of the 7-week old rat to a holder for the blood pressure measurement was carried out for one week. […]
For three days after completing the training, change in the blood pressure was measured upon presentation of the aromatic composition to the rats. […] The blood pressures before and after 30 minutes from presenting the aromatic compositions were measured, and the changes of the blood pressures were compared. […]

SMILES	change in diastolic blood pressure (caudal arterial pressure) after presentation compared with the values before the presentation
CC(C)=CCCC(C)=CC=O [citral]	lowering of the blood pressure
C=CC(C)(O)CCC=C(C)C (centres unmarked) [linalool]	lowering of the blood pressure
